The record followed here is PubChem BioAssay AID602308 (Southern Research Specialized Biocontainment Screening …, 2012).

This test concerns the target Flavivirus NS5 methyltransferase / guanylyltransferase (capping enzyme). Nature of the test: NS5 cap-forming enzyme inhibition – biochemical, confirmation (AID 602308). The following applies: Flavivirus NS5 capping enzyme biochemical inhibition assay; for inhibition: at 100 µM (top of the series).

Activity calls are given as the source filed them. No rule for the calls is given here.

As a reminder, the IC50 is the midpoint of a concentration-inhibition curve. Consider `O=C(O)CSc1cc(NS(=O)(=O)c2ccc(Cl)cc2)c2ccccc2c1O`, for which the concentration for half-maximal inhibition (IC50) is 5.45 µM.

With `Cn1c(=O)c2cnc(-c3ccccc3)nc2n(C)c1=O`, the inhibition result was “inactive”.

For `Cn1c(=O)c2[nH]c(-c3ccc(Cl)cc3)c(O)c2n(C)c1=O`, the half-maximal inhibitory concentration (IC50) was 57.8 µM.

For the compound `O=C(O)CSc1cc(NS(=O)(=O)c2cccc([N+](=O)[O-])c2)c2ccccc2c1O`, the IC50 was 3.83 µM.

Consider `Cc1ccn2cc(-c3ccccc3)nc2c1`, for which the inhibition entry was “inactive”.

As to `Cn1c(=O)c2[nH]c(-c3ccccc3)nc2n(C)c1=O`, the inhibition entry was “inactive”.

For `O=C(O)CSc1cc(NS(=O)(=O)c2ccc(F)cc2)c2ccccc2c1O`, the half-inhibitory concentration (IC50) is 7.32 µM.

With `Cc1nc2nc(-c3ccc(F)cc3)cn2nc1C`, the inhibition result was “inactive”.

Consider `O=C(O)CSc1cc(NS(=O)(=O)c2ccc(Br)cc2)c2ccccc2c1O`, for which the 50% inhibitory concentration (IC50) is 4.96 µM.

Consider `O=C(O)CSc1cc(NS(=O)(=O)c2cccc3cccnc23)c2ccccc2c1O`, for which the half-inhibitory concentration (IC50) was 6.62 µM.

For the compound `Cc1nc2nc(-c3ccccc3)cn2nc1C`, the inhibition entry is “inactive”.

With `Cc1cc(C)c(S(=O)(=O)Nc2cc(SCC(=O)O)c(O)c3ccccc23)c(C)c1`, the IC50 is 6.95 µM.

Turning to `Cn1c(=O)c2[nH]c(-c3cccc4ccccc34)c(O)c2n(C)c1=O`, the inhibition result was “inactive”.

As for `O=[N+]([O-])c1cccc(S(=O)(=O)Nc2cc(Sc3nc4ccccc4s3)c(O)c3ccccc23)c1`, the IC50 was 34.3 µM.

`O=S(=O)(Nc1cc(Cl)c(O)c2ccccc12)c1ccc(F)cc1`: the half-inhibitory concentration (IC50) is 17.8 µM.

Consider `O=S(=O)(Nc1cc(Sc2ncn[nH]2)c(O)c2ccccc12)c1ccc(F)cc1`, for which the IC50 was 10.2 µM.

With `CN(C)C(=O)c1ccc2nc(-c3ccccc3)cn2c1`, the inhibition result is “inactive”.

Take `O=S(=O)(Nc1cc(SCc2ccccc2)c(O)c2ccccc12)c1ccc(Cl)cc1`: the IC50 is 43.3 µM.

As for `Cc1ccc(S(=O)(=O)Nc2cc(SCC(=O)O)c(O)c3ccccc23)cc1`, the IC50 is 6.24 µM.

With `O=[N+]([O-])c1cccc(S(=O)(=O)Nc2cc(SCc3ccccc3)c(O)c3ccccc23)c1`, the IC50 was 14.8 µM.

For `Cc1ccc(-c2cn3nc(C)c(C)nc3n2)cc1`, the inhibition result was “inactive”.

Consider `Cc1cc(F)ccc1S(=O)(=O)Nc1cc(SCC(=O)O)c(O)c2ccccc12`, for which the 50% inhibitory concentration (IC50) was 5.66 µM.

With `Cc1ccc2nc(-c3ccccc3)cn2c1`, the inhibition result is “inactive”.

As to `Clc1ccc2nc(-c3cccs3)cn2c1`, the inhibition result is “inactive”.

Regarding `Cc1ccc(S(=O)(=O)Nc2cc(Sc3nc(C)cc(C)n3)c(O)c3ccccc23)cc1`, the IC50 was 83.8 µM.

On to `Cn1c(=O)c2[nH]c(-c3ccccc3)c(O)c2n(C)c1=O`, for which the half-maximal inhibitory concentration (IC50) is 28.1 µM.

For the compound `COc1ccc(OC)c(S(=O)(=O)Nc2cc(SCC(=O)O)c(O)c3ccccc23)c1`, the half-maximal inhibitory concentration (IC50) is 9.09 µM.

As for `O=S(=O)(Nc1cc(Sc2ccccc2)c(O)c2ccccc12)c1ccc(F)cc1`, the half-inhibitory concentration (IC50) was 35.6 µM.

For `Cc1nc2nc(-c3ccc(Cl)cc3)cn2nc1C`, the inhibition entry is “inactive”.

As for `Clc1ccc2nc(-c3ccccc3)cn2c1`, the inhibition result is “inactive”.
